Here are results for 37 compounds from patent US20240327393A1 (SIRONAX LTD., priority 2021, published 2024).

Each structure is given as a SMILES string.

In the experiment the test system is HT-1080 (ATCC, CCL-121) cells. Nature of the experiment: HT-1080 cell viability assay with ferroptosis inducer RSL3 (Cell Titer-Glo). The experiment is classed as cell-based. The settings on record: Homo sapiens; HT-1080 cells treated with RSL3; 3-fold, 10-point dilution, 1.1 μM highest concentration; Table 2; read-out: EC50 (nM), ferroptosis inhibitory activity. In outline:
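EC50 was derived by sigmoidal dose-response regression of CellTiter-Glo luminescence viability, expressed relative to untreated wells. Compounds were tested in a ten-point, threefold dilution series (highest 1.1 μM) in the presence of the ferroptosis inducer RSL3. HT-1080 cells had been seeded at 6000 per well and grown overnight first.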
Take `CN1Cc2cc(Nc3ccc(N4CCC(F)(F)CC4)cc3)ccc2C1=O` [Compound 172, 5-((4-(4,4-difluoropiperidin-1-yl)phenyl)amino)-2-methylisoindolin-1-one]: the EC50 is 0.1 to 100 nM.
As for `CN1Cc2cc(Nc3ccc(N4CCC(C(F)(F)F)CC4)cc3)ccc2C1=O` [Compound 173, 2-methyl-5-((4-(4-(trifluoromethyl)piperidin-1-yl)phenyl)amino) isoindolin-1-one], the EC50 fell in the range of 0.1 to 100 nM.
With `CC1CCN(c2ccc(Nc3ccc4c(c3)CN(C)C4=O)cc2)CC1` [Compound 174, 2-methyl-5-((4-(4-methylpiperidin-1-yl)phenyl)amino)isoindolin-1-one], the EC50 fell in the range of 0.1 to 100 nM.
For `CCN1Cc2ccc(Nc3ccc(N4CCC(C(F)(F)F)CC4)cc3)cc2C1` [Compound 175, 2-ethyl-N-(4-(4-(trifluoromethyl)piperidin-1-yl)phenyl)isoindolin-5-amine] the value was 0.1 to 100 nM; for `CCN1Cc2ccc(Nc3ccc(N4CCC(C)CC4)cc3)cc2C1` [Compound 176, 2-ethyl-N-(4-(4-methylpiperidin-1-yl)phenyl)isoindolin-5-amine], 0.1 to 100 nM; for `CCN1Cc2ccc(Nc3ccc(N4CCCCC4)c(C(F)(F)F)c3)cc2C1` [Compound 177, 2-ethyl-N-(4-(piperidin-1-yl)-3-(trifluoromethyl)phenyl)isoindolin-5-amine], 0.1 to 100 nM.
For `CN1Cc2cc(Nc3ccc(N4CCCCC4)c(C(F)(F)F)c3)ccc2C1=O` [Compound 178, 2-methyl-5-((4-(piperidin-1-yl)-3-(trifluoromethyl)phenyl)amino) isoindolin-1-one] the value was 0.1 to 100 nM; for `O=C1c2ccc(Nc3ccc(N4CCC(C(F)(F)F)CC4)cc3)cc2CN1CC1CC1` [Compound 179, 2-(cyclopropylmethyl)-5-((4-(4-(trifluoromethyl)piperidin-1-yl)phenyl)amino)isoindolin-1-one], 0.1 to 100 nM.
As for `CCN1Cc2cc(Nc3ccc(N4CCC(C(F)(F)F)CC4)cc3)ccc2C1=O` [Compound 180, 2-ethyl-5-((4-(4-(trifluoromethyl)piperidin-1-yl)phenyl)amino) isoindolin-1-one], the EC50 lay in the range of 0.1 to 100 nM.
Turning to `CC(C)(C)C(=O)N1Cc2ccc(Nc3ccc(N4CCC(C(F)(F)F)CC4)cc3)cc2C1` [Compound 181, 2,2-dimethyl-1-(5-((4-(4-(trifluoromethyl)piperidin-1-yl)phenyl)amino)isoindolin-2-yl)propan-1-one], the EC50 was in the range of 0.1 to 100 nM.
On to `O=C1NCc2cc(Nc3ccc(N4CCC(C(F)(F)F)CC4)cc3)ccc21` [Compound 182, 5-((4-(4-(trifluoromethyl)piperidin-1-yl)phenyl)amino)isoindolin-1-one], for which the EC50 was in the range of 0.1 to 100 nM.
With `CN1Cc2cc(Nc3cnc(N4CCCCC4)c(F)c3)ccc2C1=O` [Compound 183, 5-((5-fluoro-6-(piperidin-1-yl)pyridin-3-yl)amino)-2-methylisoindolin-1-one], the EC50 was 0.1 to 100 nM.
Regarding `CC1CCN(c2ccc(Nc3ccc4c(c3)CN(CC3CC3)C4=O)cc2)CC1` [Compound 184, 2-(cyclopropylmethyl)-5-((4-(4-methylpiperidin-1-yl)phenyl)amino) isoindolin-1-one], the EC50 was in the range of 0.1 to 100 nM.
As for `O=C1c2ccc(Nc3ccc(N4CCCCC4)cc3)cc2CN1CC1CC1` [Compound 185, 2-(cyclopropylmethyl)-5-((4-(piperidin-1-yl)phenyl)amino)isoindolin-1-one], the EC50 fell in the range of 0.1 to 100 nM.
With `CC(=O)N1Cc2ccc(Nc3ccc(N4CCC(C(F)(F)F)CC4)cc3)cc2C1` [Compound 186, 1-(5-((4-(4-(trifluoromethyl)piperidin-1-yl)phenyl)amino)isoindolin-2-yl) ethan-1-one], the EC50 lay within 0.1 to 100 nM.
Regarding `Cn1oc2cc(Nc3ccc(N4CCC(C(F)(F)F)CC4)cc3)ccc2c1=O` [Compound 187, 2-methyl-6-((4-(4-(trifluoromethyl)piperidin-1-yl)phenyl)amino)benzo[d]isoxazol-3(2H)-one], the EC50 fell in the range of 0.1 to 100 nM.
Take `Cn1c(=O)c2ccc(Nc3ccc(N4CCC(C(F)(F)F)CC4)cc3)cc2n1C(=O)OC(C)(C)C` [Compound 188, tert-butyl 2-methyl-3-oxo-6-((4-(4-(trifluoromethyl)piperidin-1-yl)phenyl)amino)-2,3-dihydro-1H-indazole-1-carboxylate]: the EC50 was 100 to 1000 nM.
In the case of `CC1(C)c2ccc(Nc3ccc(N4CCC(C(F)(F)F)CC4)cc3)cc2CN1C(=O)C1CC1` [Compound 189, cyclopropyl(1,1-dimethyl-5-((4-(4-(trifluoromethyl)piperidin-1-yl)phenyl)amino)isoindolin-2-yl)methanone], the EC50 fell in the range of 0.1 to 100 nM.
Take `O=C(C1CC1)N1Cc2ccc(Nc3ccc(N4CCC(C(F)(F)F)CC4)cc3)cc2C1` [Compound 190, cyclopropyl(5-((4-(4-(trifluoromethyl)piperidin-1-yl)phenyl)amino)isoindolin-2-yl)methanone]: the EC50 is 0.1 to 100 nM.
In the case of `Cn1[nH]c2cc(Nc3ccc(N4CCC(C(F)(F)F)CC4)cc3)ccc2c1=O` [Compound 191, 2-methyl-6-((4-(4-(trifluoromethyl)piperidin-1-yl)phenyl)amino)-1,2-dihydro-3H-indazol-3-one], the EC50 lay within 0.1 to 100 nM.
On to `CC1CCN(c2c(F)cc(Nc3ccc4c(c3)CN(C)C4=O)cc2F)CC1` [Compound 192, 5-((3,5-difluoro-4-(4-methylpiperidin-1-yl)phenyl)amino)-2-methylisoindolin-1-one], for which the EC50 fell in the range of 0.1 to 100 nM.
Regarding `CCN1Cc2cc(Nc3cc(F)c(N4CCC(C)CC4)c(F)c3)ccc2C1=O` [Compound 193, 5-((3,5-difluoro-4-(4-methylpiperidin-1-yl)phenyl)amino)-2-ethylisoindolin-1-one], the EC50 was 0.1 to 100 nM.
In the case of `CN1Cc2cc(Nc3ccc(N4CCC(C(F)(F)F)CC4)cc3)cnc2C1=O` [Compound 194, 6-methyl-3-((4-(4-(trifluoromethyl)piperidin-1-yl)phenyl)amino)-5,6-dihydro-7H-pyrrolo[3,4-b]pyridin-7-one], the EC50 is 0.1 to 100 nM.
With `CCN1Cc2ccc(Nc3cnc(N4CCCCC4)c(F)c3)cc2C1` [Compound 195, 2-ethyl-N-(5-fluoro-6-(piperidin-1-yl)pyridin-3-yl)isoindolin-5-amine] the figure was 0.1 to 100 nM; with `Fc1cc(Nc2ccc3c(c2)CN(CC2CC2)C3)cnc1N1CCCCC1` [Compound 196, 2-(cyclopropylmethyl)-N-(5-fluoro-6-(piperidin-1-yl)pyridin-3-yl) isoindolin-5-amine], 0.1 to 100 nM.
Take `CC(C)(C)N1Cc2cc(Nc3ccc(N4CCC(C(F)(F)F)CC4)cc3)ccc2C1=O` [Compound 197, 2-(tert-butyl)-5-((4-(4-(trifluoromethyl)piperidin-1-yl)phenyl)amino) isoindolin-1-one]: the EC50 fell in the range of 0.1 to 100 nM.
Take `COCCOCCN1Cc2cc(Nc3ccc(N4CCC(C(F)(F)F)CC4)cc3)ccc2C1=O` [Compound 198, 2-(2-(2-methoxyethoxy)ethyl)-5-((4-(4-(trifluoromethyl)piperidin-1-yl)phenyl)amino)isoindolin-1-one]: the EC50 lay within 0.1 to 100 nM.
On to `O=C1c2ccc(Nc3ccc(N4CCC(C(F)(F)F)CC4)cc3)cc2CN1Cc1ccccc1` [Compound 199, 2-benzyl-5-((4-(4-(trifluoromethyl)piperidin-1-yl)phenyl)amino) isoindolin-1-one], for which the EC50 is 0.1 to 100 nM.
With `CN(C)CCCN1Cc2cc(Nc3ccc(N4CCC(C(F)(F)F)CC4)cc3)ccc2C1=O` [Compound 200, 2-(3-(dimethylamino)propyl)-5-((4-(4-(trifluoromethyl)piperidin-1-yl)phenyl)amino)isoindolin-1-one] the figure was 0.1 to 100 nM; with `CN1C(=O)c2ccc(Nc3ccc(N4CCC(C(F)(F)F)CC4)cc3)cc2C1=O` [Compound 201, 2-methyl-5-((4-(4-(trifluoromethyl)piperidin-1-yl)phenyl)amino) isoindoline-1,3-dione], 0.1 to 100 nM.
As for `CN1Cc2cc(Nc3ccc(N4CCC(C(F)(F)F)CC4)cc3)cc(F)c2C1=O` [Compound 202, 7-fluoro-2-methyl-5-((4-(4-(trifluoromethyl)piperidin-1-yl)phenyl)amino) isoindolin-1-one], the EC50 is 0.1 to 100 nM.
For `CN1Cc2cc(Nc3ccc(N4CCC(C(F)(F)F)CC4)cc3)cc(Cl)c2C1=O` [Compound 203, 7-chloro-2-methyl-5-((4-(4-(trifluoromethyl)piperidin-1-yl)phenyl)amino) isoindolin-1-one] the value was 0.1 to 100 nM; for `CN1Cc2cc(Nc3ccc(N4CCC(C(F)(F)F)CC4)c(F)c3)ccc2C1=O` [Compound 204, 5-((3-fluoro-4-(4-(trifluoromethyl)piperidin-1-yl)phenyl)amino)-2-methylisoindolin-1-one], 0.1 to 100 nM.
Consider `CC(C)(C)NC(=O)N1Cc2ccc(Nc3ccc(N4CCC(C(F)(F)F)CC4)cc3)cc2C1` [Compound 205, N-(tert-butyl)-5-((4-(4-(trifluoromethyl)piperidin-1-yl)phenyl)amino) isoindoline-2-carboxamide], for which the EC50 is 0.1 to 100 nM.
Take `Cn1cnc(N2Cc3cc(Nc4ccc(N5CCC(C(F)(F)F)CC5)cc4)ccc3C2=O)c1` [Compound 206, 2-(1-methyl-1H-imidazol-4-yl)-5-((4-(4-(trifluoromethyl)piperidin-1-yl)phenyl)amino)isoindolin-1-one]: the EC50 fell in the range of 0.1 to 100 nM.
Turning to `CC1CN(c2ccc(Nc3ccc4c(c3)nnn4C)cc2)CC(C)O1` (stereo not shown) [Compound 207, N-(4-(2,6-dimethylmorpholino)phenyl)-1-methyl-1H-benzo[d][1,2,3]triazol-5-amine], the EC50 lay in the range of 0.1 to 100 nM.
`CN1CCC(N2Cc3cc(Nc4ccc(N5CCC(C(F)(F)F)CC5)cc4)ccc3C2=O)CC1` [Compound 208, 2-(1-methylpiperidin-4-yl)-5-((4-(4-(trifluoromethyl)piperidin-1-yl)phenyl)amino)isoindolin-1-one]: the EC50 was 0.1 to 100 nM.
